Data taken from PubChem BioAssay AID2060882 (Molecular Pharmacology Branch, DTP, NCI, 2025).

System: 898857-211-R-J1-PDC complex spheroids, growth % test/control
Assay: Anticancer human tumor 898857-211-R-J1-PDC patient-derived melanoma cell line growth inhibition [RAS]
Conditions: for IC50: curve of first compound; for viability, T/C: stronger effect = lower value
In short: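 Agents were tested in combination matrices in half-log decrements from a top concentration at or near clinical Cmax (10 microM if undetermined). Targets were multi-cell spheroids of tumour lines plus HUVEC and MSC stromal cells.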

[1] = second compound 0.000949 µM, first compound 0.00316 µM
[2] = second compound 0.000949 µM, first compound 0.01 µM
[3] = second compound 0.000949 µM, first compound 0.0316 µM
[4] = second compound 0.000949 µM, first compound 0.1 µM
[5] = second compound 0.000949 µM, first compound 0.316 µM
[6] = second compound 0.000949 µM, first compound 1 µM
[7] = second compound 0.003 µM, first compound 0.00316 µM
[8] = second compound 0.003 µM, first compound 0.01 µM
[9] = second compound 0.003 µM, first compound 0.0316 µM
[10] = second compound 0.003 µM, first compound 0.1 µM
[11] = second compound 0.003 µM, first compound 0.316 µM
[12] = second compound 0.003 µM, first compound 1 µM
[13] = second compound 0.00949 µM, first compound 0.00316 µM
[14] = second compound 0.00949 µM, first compound 0.01 µM
[15] = second compound 0.00949 µM, first compound 0.0316 µM
[16] = second compound 0.00949 µM, first compound 0.1 µM
[17] = second compound 0.00949 µM, first compound 0.316 µM
[18] = second compound 0.00949 µM, first compound 1 µM
[19] = second compound 0.03 µM, first compound 0.00316 µM
[20] = second compound 0.03 µM, first compound 0.01 µM
[21] = second compound 0.03 µM, first compound 0.0316 µM
[22] = second compound 0.03 µM, first compound 0.1 µM
[23] = second compound 0.03 µM, first compound 0.316 µM
[24] = second compound 0.03 µM, first compound 1 µM
[25] = second compound 0.0949 µM, first compound 0.00316 µM
[26] = second compound 0.0949 µM, first compound 0.01 µM
[27] = second compound 0.0949 µM, first compound 0.0316 µM
[28] = second compound 0.0949 µM, first compound 0.1 µM
[29] = second compound 0.0949 µM, first compound 0.316 µM
[30] = second compound 0.0949 µM, first compound 1 µM
[31] = second compound 0.3 µM, first compound 0.00316 µM
[32] = second compound 0.3 µM, first compound 0.01 µM
[33] = second compound 0.3 µM, first compound 0.0316 µM
[34] = second compound 0.3 µM, first compound 0.1 µM
[35] = second compound 0.3 µM, first compound 0.316 µM
[36] = second compound 0.3 µM, first compound 1 µM
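Further: spheroids exposed to compound for seven days before readout.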
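Wherever viability, T/C is given: 100% = DMSO vehicle control wells.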

Q: With `C=CC(=O)Nc1cc(Nc2nccc(-c3cn(C)c4ccccc34)n2)c(OC)cc1N(C)CCN(C)C` + CCn1c(-c2cccnc2C(C)OC)c2c3cc(ccc31)N1CCOC(CC(NC(=O)C(C(C)C)N(C)C(=O)C3(F)CCN(C(=O)C#CC(C)(C)N(C)C)CC3)C(=O)N3CCCC(N3)C(=O)OCC(C)(C)C2)C1 as the compound, how does the IC50 (second compound 0.000949 µM) read?
A: > 1000 nM

Q: What about the IC50 (second compound 0.003 µM) of the same compound?
A: 942 nM

Q: What about the IC50 (second compound 0.00949 µM) of the same compound?
A: > 1000 nM

Q: What about the IC50 (second compound 0.03 µM) of the same compound?
A: > 1000 nM

Q: And the IC50 (second compound 0.0949 µM)?
A: > 1000 nM

Q: And the IC50 (second compound 0.3 µM)?
A: 848 nM

Q: What about the viability, T/C [1] of the same compound?
A: 104%

Q: What about the viability, T/C [2] of the same compound?
A: 103%

Q: What about the viability, T/C [3] of the same compound?
A: 107%

Q: What about the viability, T/C [4] of the same compound?
A: 84.9%

Q: What about the viability, T/C [5] of the same compound?
A: 95.9%

Q: What about the viability, T/C [6] of the same compound?
A: 56.3%

Q: What about the viability, T/C [7] of the same compound?
A: 99.3%

Q: And the viability, T/C [8]?
A: 99.9%

Q: What about the viability, T/C [9] of the same compound?
A: 108%

Q: What about the viability, T/C [10] of the same compound?
A: 95.4%

Q: What about the viability, T/C [11] of the same compound?
A: 94.1%

Q: What about the viability, T/C [12] of the same compound?
A: 47.1%

Q: And the viability, T/C [13]?
A: 95.8%

Q: And the viability, T/C [14]?
A: 97.8%

Q: What about the viability, T/C [15] of the same compound?
A: 102%

Q: What about the viability, T/C [16] of the same compound?
A: 94.8%

Q: What about the viability, T/C [17] of the same compound?
A: 91.4%

Q: What about the viability, T/C [18] of the same compound?
A: 59.9%

Q: What about the viability, T/C [19] of the same compound?
A: 107%

Q: What about the viability, T/C [20] of the same compound?
A: 105%

Q: What about the viability, T/C [21] of the same compound?
A: 106%

Q: What about the viability, T/C [22] of the same compound?
A: 110%

Q: And the viability, T/C [23]?
A: 90.2%

Q: What about the viability, T/C [24] of the same compound?
A: 58.3%

Q: What about the viability, T/C [25] of the same compound?
A: 105%

Q: What about the viability, T/C [26] of the same compound?
A: 98.2%

Q: And the viability, T/C [27]?
A: 92.3%

Q: What about the viability, T/C [28] of the same compound?
A: 96.6%

Q: What about the viability, T/C [29] of the same compound?
A: 92.2%

Q: What about the viability, T/C [30] of the same compound?
A: 57%

Q: What about the viability, T/C [31] of the same compound?
A: 84.8%

Q: What about the viability, T/C [32] of the same compound?
A: 67.8%

Q: And the viability, T/C [33]?
A: 77.7%

Q: What about the viability, T/C [34] of the same compound?
A: 76.1%

Q: And the viability, T/C [35]?
A: 71.4%

Q: And the viability, T/C [36]?
A: 46.4%

Q: What does the source list for `CC(Nc1ccc2c(c1)OCCn1cc(N3C(=O)OCC3C(F)F)nc1-2)C(N)=O` (stereo unspecified) + CCn1c(-c2cccnc2C(C)OC)c2c3cc(ccc31)N1CCOC(CC(NC(=O)C(C(C)C)N(C)C(=O)C3(F)CCN(C(=O)C#CC(C)(C)N(C)C)CC3)C(=O)N3CCCC(N3)C(=O)OCC(C)(C)C2)C1?
A: IC50 (second compound 0.000949 µM): > 10000 nM; IC50 (second compound 0.003 µM): > 10000 nM; IC50 (second compound 0.00949 µM): > 10000 nM; IC50 (second compound 0.03 µM): > 10000 nM; IC50 (second compound 0.0949 µM): > 10000 nM; IC50 (second compound 0.3 µM): 5640 nM; viability, T/C [3]: 110%; viability, T/C [4]: 87%; viability, T/C [5]: 89.4%; viability, T/C [6]: 92.7%; viability, T/C (second compound 0.000949 µM, first compound 3.16 µM): 89.3%; viability, T/C (second compound 0.000949 µM, first compound 10 µM): 65.8%; viability, T/C [9]: 105%; viability, T/C [10]: 103%; viability, T/C [11]: 97.4%; viability, T/C [12]: 104%; viability, T/C (second compound 0.003 µM, first compound 3.16 µM): 96.7%; viability, T/C (second compound 0.003 µM, first compound 10 µM): 63.2%; viability, T/C [15]: 94.9%; viability, T/C [16]: 104%; viability, T/C [17]: 92.8%; viability, T/C [18]: 103%; viability, T/C (second compound 0.00949 µM, first compound 3.16 µM): 78.7%; viability, T/C (second compound 0.00949 µM, first compound 10 µM): 66.4%; viability, T/C [21]: 89.8%; viability, T/C [22]: 98.3%; viability, T/C [23]: 98.2%; viability, T/C [24]: 95.4%; viability, T/C (second compound 0.03 µM, first compound 3.16 µM): 75.8%; viability, T/C (second compound 0.03 µM, first compound 10 µM): 58.8%; viability, T/C [27]: 103%; viability, T/C [28]: 98.7%; viability, T/C [29]: 91%; viability, T/C [30]: 83.8%; viability, T/C (second compound 0.0949 µM, first compound 3.16 µM): 63.1%; viability, T/C (second compound 0.0949 µM, first compound 10 µM): 53%; viability, T/C [33]: 73.9%; viability, T/C [34]: 74.7%; viability, T/C [35]: 68%; viability, T/C [36]: 69.5%; viability, T/C (second compound 0.3 µM, first compound 3.16 µM): 57.6%; viability, T/C (second compound 0.3 µM, first compound 10 µM): 41.8%

Q: Which results are given for `O=C(c1ccc(F)c(F)c1Nc1ccc(I)cc1F)N1CC(O)([C@@H]2CCCCN2)C1` + CCn1c(-c2cccnc2C(C)OC)c2c3cc(ccc31)N1CCOC(CC(NC(=O)C(C(C)C)N(C)C(=O)C3(F)CCN(C(=O)C#CC(C)(C)N(C)C)CC3)C(=O)N3CCCC(N3)C(=O)OCC(C)(C)C2)C1?
A: IC50 (second compound 0.000949 µM): 3.75 nM; IC50 (second compound 0.003 µM): 3.67 nM; IC50 (second compound 0.00949 µM): 4.67 nM; IC50 (second compound 0.03 µM): 3.3 nM; IC50 (second compound 0.0949 µM): < 3.16 nM; IC50 (second compound 0.3 µM): < 3.16 nM; viability, T/C [1]: 53.5%; viability, T/C [2]: 36.4%; viability, T/C [3]: 29.6%; viability, T/C [4]: 23.9%; viability, T/C [5]: 16.6%; viability, T/C [6]: 12%; viability, T/C [7]: 52.9%; viability, T/C [8]: 35.4%; viability, T/C [9]: 26.5%; viability, T/C [10]: 22.4%; viability, T/C [11]: 15.9%; viability, T/C [12]: 11.8%; viability, T/C [13]: 55.8%; viability, T/C [14]: 39.3%; viability, T/C [15]: 27.3%; viability, T/C [16]: 21.6%; viability, T/C [17]: 15.7%; viability, T/C [18]: 12.7%; viability, T/C [19]: 50.5%; viability, T/C [20]: 35.5%; viability, T/C [21]: 21.8%; viability, T/C [22]: 20.4%; viability, T/C [23]: 15.6%; viability, T/C [24]: 12.4%; viability, T/C [25]: 44.8%; viability, T/C [26]: 35.4%; viability, T/C [27]: 28.3%; viability, T/C [28]: 18.2%; viability, T/C [29]: 15.6%; viability, T/C [30]: 13.4%; viability, T/C [31]: 33.8%; viability, T/C [32]: 29.3%; viability, T/C [33]: 20.9%; viability, T/C [34]: 16.6%; viability, T/C [35]: 13.6%; viability, T/C [36]: 10.7%
